Assay results reported in paper PMC4122817, “Target Engagement Analysis and Link to Pharmacodynamic Endpoint for a Novel Class of CNS-penetrant and Efficacious p38α MAPK Inhibitors” (Journal of Neuroimmune Pharmacology, 2014).

Target: T1, p38α MAPK (Mus musculus, UniProt P47811)
T1 construct: gene Mapk14; endogenous p38α MAPK in the murine microglial BV-2 cell line
Test: western blot of phosphorylated substrate MK2 in LPS-stimulated BV2 cells (pMSK1 IC50 […]); in vivo effect lost in p38α T106M knock-in mice
Type: cell-based

T1 sequence (P47811 2-360): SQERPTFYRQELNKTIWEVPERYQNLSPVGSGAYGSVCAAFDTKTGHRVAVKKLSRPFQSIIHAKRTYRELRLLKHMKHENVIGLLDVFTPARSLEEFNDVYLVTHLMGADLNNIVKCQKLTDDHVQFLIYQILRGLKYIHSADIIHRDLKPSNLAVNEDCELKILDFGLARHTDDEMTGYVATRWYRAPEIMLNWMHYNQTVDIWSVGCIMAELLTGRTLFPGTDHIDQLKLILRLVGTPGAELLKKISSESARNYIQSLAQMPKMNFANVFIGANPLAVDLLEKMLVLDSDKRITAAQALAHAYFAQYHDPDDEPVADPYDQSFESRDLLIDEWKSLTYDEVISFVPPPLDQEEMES

IC50: 1200 nM
Substance: MW181
